Laboratory results taken from patent US20230338391A1, “TREATMENT FOR DEPRESSION” (TAKEDA PHARMACEUTICAL COMPANY LIMITED, priority 2020, published 2023).
Like-named read-outs stand apart in the source and are kept apart here.

Legend:
[1] = system: cynomolgus monkeys; experiment: 13-week NHP GLP toxicity study: clinical signs, EEG/EMG telemetry, pathology; format: in vivo, Monkey (Macaca fascicularis)
Experimental: (§1) The appropriate volume of reverse osmosis water was added into a suitable sized container and heated between 70° C. and 90° C. An appropriate amount of MC (METOLOSE SM-100, Shin-Etsu Chemical Co Ltd) was weighed and transferred (while stirring) to the container with heated reverse osmosis water. The solution was cooled down until a clear solution was obtained (an ice bath was used). The solution was stored refrigerated (set to 2-8° C.) until used. Unused reference item/vehicle was discarded when not needed anymore. To make a 0.2 w/v % suspension of COMPOUND A, an appropriate amount of the test item was weighed. A small volume of vehicle was added to slowly wet the test item. The appropriate volume of vehicle was added to reach the final volume and the formulation was homogenized using a homogenizer until a uniform suspension was achieved and stirred for 30 to 59 minutes. The 0.2 w/v % suspension was then diluted with the 0.5 w/v % MC in reverse osmosis water solution to make 0.12, 0.06 and 0.006 w/v % suspensions. However, on Oct. 1, 2015, the 1.2 mg/mL formulation was prepared by dissolving the appropriate amount of COMPOUND A in the vehicle, instead of diluting the 2 mg/mL formulation to reach the appropriate concentration. This deviation had no impact on the study since the appropriate concentration was prepared.
(§2) After suitable acclimation to the dosing procedure, the reference item (0.5% methylcellulose (MC) in reverse osmosis water) was administered once by oral gavage during Phase 1 of the study. The objective of Phase 1 was to confirm the EEG morphologies in all animals before and after dosing procedures. The traces generated during Phase 1 were used for interpretation of Phase 2 data. Beginning 1 day later, the reference item or COMPOUND A was administered once daily by oral gavage for 90 days during Phase 2 as shown in Table 7.
(§3) Clinical signs (ill health, behavioral changes, etc.) were recorded on surviving animals twice daily during all phases of study and monitored continuously for at least 16 hours after the 1st, 3rd, 7th, 14th and 28th dose administration in Phase 2, using digital cameras (to minimize stress for the animals) or using direct observation when needed or during dose administration. Additional clinical observations were performed when deemed necessary.
(§4) EEGs and EMGs were obtained from the animals using telemetry transmitter leads inserted subcutaneously using bipolar derivations (EMG, C4-O2 and Cz-Oz).
(§5) EEG and EMG monitoring was recorded continuously (except during study designated procedures or other procedures such as data backup) from at least 72 hours prior to the first dose of Phase 1 to at least 24 hours after the 28th dose of Phase 2. EEG and EMG monitoring was also recorded continuously (except during study designated procedures or other procedures such as data backup) for a period of at least 36 hours (from at least 12 hours prior to dosing until at least 24 hours post-dosing) once in the 8th week of dosing and once towards the end of the dosing period (13th week of dosing) in Phase 2.
(§6) Using the NeuroScore software (Data Science International), EEGs were analyzed from at least 24 hours prior to the first dose of Phase 1 to at least 24 hours after the 28th dose in Phase 2, and for a period of at least 36 hours (from at least 12 hours prior to dosing until at least 24 hours post-dosing) once in the 8th week of dosing and once towards the end of the dosing period (13th week of dosing) in Phase 2. […] EMGs were used to aid in the interpretation of the EEG data.
(§7) EEGs were reviewed by the Neurologist at the following timepoints: 1-1.5, 2.5-5.5, and 7-7.5 hours following the 1st, 3rd, 7th, 14th and 28th dose administration in Phase 2. The observance of abnormal behaviors/convulsions in individual animals by laboratory personnel also triggered an EEG review for approximately the same time period during which the abnormal behavior was witnessed. […]

[2] = as above; format: in vivo, Monkey (Macaca fascicularis); details: cynomolgus monkey, in vivo, oral gavage once daily, 13 weeks, read-out: no-observed-adverse-effect level (NOAEL)
Experimental: as §1, §2, §3, §4, §5, §6, §7

## CC1=CN2CCS(=O)(=O)N=C2C(c2ccc(OC3CCCCC3)cc2)=N1 [COMPOUND A, 9-[4-(Cyclohexyloxy)phenyl]-7-methyl-3,4-dihydropyrazino[2,1-c][1,2,4]thiadiazine 2,2-dioxide]
[1]; 0.3 and 3 mg/kg/day, after 2nd and 27th dose
  qEEG total power: associated with an increase in total EEG power
[1]; 0.3 or 3.0 mg/kg/day, males or females
  clinical signs and EEG: no adverse clinical signs or abnormal EEG changes
[1]; females, 6.0 mg/kg/day
  clinical signs: myoclonic jerks, decreased activity, weakness, and uncoordination were observed
[1]; females, 10.0 mg/kg/day
  clinical signs: salivation, excessive licking, decreased activity, weakness, lying on cage floor, nystagmus, uncoordination, muscle twitches and myoclonic jerks were observed
  generalized seizures (EEG): Self-limiting generalized seizures, confirmed by EEG, were observed in two female monkeys
[1]; males, 10 mg/kg/day
  clinical signs: decreased activity, tremors and circling were observed at 10 mg/kg/day but were not considered adverse
[2]; female, females
  NOAEL at 13 weeks: 3 mg/kg/day
[2]; male, males
  NOAEL at 13 weeks: 10 mg/kg/day
